Reference: patent US9586959B2, “Substituted tricyclic heterocycles as histamine 4 receptor inhibitors” (C&C RESEARCH LABORATORIES, priority 2011, dated 2017)

Key:
[1] = test system: histamine-induced mast cell migration (trachea); experiment: Histamine-induced mast cell migration; type: in vivo, Balb/c mice; conditions: 20 mg/kg oral, 0.1 M histamine aerosol, 2 days
Method: Female, Balb/c mice (7 weeks old, 20±3 g) were purchased from OrientBio Co., Ltd.
The animals were housed under conditions of controlled temperature (23±3° C.), humidity (50±5%) and lighting with food and water available ad libitum.
Mice were dosed with either vehicle (20% cyclodextrin in second distilled water) or the compound by orally administration. The Compound (20 mg/kg) dissolved in a vehicle and administered orally at a volume of 10 mL/kg. After 15 minutes, mice were challenged by a 20 min aerosol inhalation of PBS (phosphate buffered saline) or 0.1 M histamine (dissolving in PBS). This process was repeated for 2 days. After a final challenge, the tracheae were cleared of blood via perfusion of PBS and tracheae were extracted, the tracheae were fixed in 10% (w/v) formaldehyde for subsequent paraffin cross-sectioning and toluidine blue staining. Total mast cells were calculated, and a mean was reported. (The Journal of Pharmacology and Experimental Therapeutics, 2004, 309, 404-413). Statistical analysis was analyzed using one-way ANOVA with Dunnett test. Values of p<0.05 were considered statistically significant.

[2] = target: human serotonin 3 receptor (human 5-HT3 receptor) (Homo sapiens (Human), UniProt P46098); experiment: Binding affinity of human serotonin 3 receptor (performed at Cerep); conditions: for IC50: read-out: Binding affinity (IC50) of human serotonin 3 receptor (h5-HT3R); for inhibition at 10 µM: read-out: % inhibition degree at 10 μM, human serotonin 3 receptor (h5-HT3R)
Method: The binding assays of the human serotonin 3 receptor for present invention were performed at Cerep (Poitiers, France), and the results of analysis are shown in Table 3.

[3] = test system: Dermatophagoides farina-induced atopic dermatitis, NC/Nga mice; experiment: Dermatophagoides farina-induced atopic dermatitis NC/Nga mouse model; type: in vivo; conditions: BID, oral, 3 weeks, control group (Df) 9.0
Method: Female, NC/Nga mice (3 weeks old, 15-17 g) were purchased from Central Lab. Animal Inc. The animals were housed in conditions of controlled temperature (23±3° C.), humidity (50±5%) and lighting with food and water available ad libitum.
The hair of back of the mice was shaved with clipper, and the remaining hair was removed completely using shaving cream. For barrier disruption, 150 μL of 4% sodium dodecyl sulfate (SDS) was applied to the shaved back skin The Df ointment (100 mg/mouse) was applied twice a week for 3 weeks. The compound were administered orally twice a day in the morning and afternoon for 3 weeks, and then the severity of dermatitis was evaluated on days 2, 7, 10, 14 and 21. The development of (1) erythema/haemorrhage, (2) scarring/dryness, (3) oedema, (4) excoriation/erosion was scored as 0 (none), 1 (mild), 2 (moderate) and 3 (severe). The total skin score was defined as the sum of the individual scores. (Scandinavian Journal of Immunol. 2011, 73, 536-545). Statistical analysis was analyzed using one-way ANOVA with Dunnett test. Values of p<0.05 were considered statistically.

human serotonin 3 receptor (human 5-HT3 receptor), sequence (P46098 24-478): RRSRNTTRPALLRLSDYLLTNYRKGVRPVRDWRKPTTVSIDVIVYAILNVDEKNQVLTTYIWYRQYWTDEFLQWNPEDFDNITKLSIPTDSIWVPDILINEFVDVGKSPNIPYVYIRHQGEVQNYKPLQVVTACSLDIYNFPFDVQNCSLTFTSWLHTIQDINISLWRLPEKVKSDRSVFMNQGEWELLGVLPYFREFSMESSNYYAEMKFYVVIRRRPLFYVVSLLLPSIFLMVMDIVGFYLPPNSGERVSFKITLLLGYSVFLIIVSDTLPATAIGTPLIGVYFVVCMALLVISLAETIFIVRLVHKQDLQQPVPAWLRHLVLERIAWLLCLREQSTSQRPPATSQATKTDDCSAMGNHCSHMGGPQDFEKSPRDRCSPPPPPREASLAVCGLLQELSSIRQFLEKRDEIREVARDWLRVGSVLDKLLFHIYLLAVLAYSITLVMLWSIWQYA

Structure (SMILES) | Mast cell migration (% change from control group) [1] | IC50 [2] [µM] | Scoring of Skin lesions (day 21) ([3]; 25 mg/kg) | Scoring of Skin lesions (day 21) ([3]; 50 mg/kg) | inhibition at 10 µM [2] [%]
CN1CCN(c2nc3ncc(Cl)cc3n3cnnc23)CC1 [Compound 4, 8-Chloro-4-(4-methylpiperazin-1-yl)pyrido[2,3-e][1,2,4]triazolo[4,3-a]pyrazine] | 70.3^1% |  |  |  | 
Clc1cnc2nc(N3CCNCC3)c3nncn3c2c1 [Compound 7, 8-Chloro-4-(piperazin-1-yl)pyrido[2,3-e][1,2,4]triazolo[4,3-a]pyrazine] | 43.1^1% |  |  |  | 
CNC1CN(c2nc3ncc(Cl)cc3n3cnnc23)C1 [Compound 18, 1-(8-Chloropyrido[2,3-e][1,2,4]triazolo[4,3-a]pyrazin-4-yl)-N-methylazetidin-3-amine] |  | 2.9 |  |  | 
CNC1CN(c2nc3ncc(Br)cc3n3cnnc23)C1 [Compound 24, 1-(8-Bromopyrido[2,3-e][1,2,4]triazolo[4,3-a]pyrazin-4-yl)-N-methylazetidin-3-amine] | 60.0^1% | 9.1 | 7.2 | 4.4^1 | 
CNC1CN(c2nc3ncc(I)cc3n3cnnc23)C1 [Compound 48, 1-(8-Iodopyrido[2,3-e][1,2,4]triazolo[4,3-a]pyrazin-4-yl)-N-methylazetidin-3-amine] |  | > 10 |  |  | 28
CNC1CN(c2nc3ncc(Br)cc3n3nnnc23)C1 [Compound 95, 1-(8-Bromopyrido[2,3-e]tetrazolo[1,5-a]pyrazin-4-yl)-N-methylazetidin-3-amine] |  | > 10 |  |  | 25
